These are literature values, as cited in patent publication US9418186B2, “Assessment of solute partitioning in crude oils” (EXXONMOBIL RESEARCH AND ENGINEERING COMPANY, priority 2012, dated 2016).

Values joined by “and” are separate entries in the source; they are usually repeats but may differ in a detail not shown here. Identical values can stand only once. Like-named read-outs stand apart in the source and are kept apart here.

For data set [1] the following is noted: Miller (North Sea) crude oil / water.
The conditions of data set [2]: chloroform / water.
The conditions of data set [3]: North Sea crude oil / water.
Assay in data set [4]: not given
This is another data set of the same source.

`Oc1ccccc1` [phenol]: the “literature value for the partition coefficient in octanol-water” value is 28.8 and the “log K in octanol-water (literature)” value is listed as 1.45. Also, in data set [1], the experimental partition coefficient was 1.72; the “experimental value for the log of the partition coefficient” value (from here on “experimental value for the log”) was 0.238 and 0.24. Besides, in data set [2], the experimental partition coefficient was 0.74 and the “experimental value for the log” value is −0.13.
In the case of `S` [H2S], the “literature value for the partition coefficient in octanol-water” value is recorded as 27.5 and the “log K in octanol-water (literature)” value is 1.44. Further, in data set [3], the experimental partition coefficient is on record as 4.09 and the “experimental value for the log” value was 0.612.
For the compound `O=C1CCCCCN1` [caprolactam], the solubility in water in data set [4] was 40353 gmol/m^3. Moreover, in data set [2], the experimental partition coefficient is listed as 0.74 and the “experimental value for the log” value was −0.131.
